Experiments:
[1] = test system: S. epidermidis ATCC 35984; test: Derivatives combined with vancomycin or cefazolin (FIC index); format: cell-based; settings: for MIC: Staphylococcus epidermidis, ATCC35984, line paired with vancomycin, read-out: MIC Derivative alone; for MIC Derivative alone: line paired with cefazolin
Description: Combination antimicrobial therapy is widely used to take advantage of different mechanisms of action. It may potentiate the effect of individual antimicrobial agents by synergic action (Bijnsdorp et al. [2011]; Cokol et al. [2011]). The glycopeptide antibiotics, such as vancomycin, can bind the peptidoglycan side chains in the cell wall and prevent cross-linking during cell wall synthesis. Vancomycin has been considered to be one of the most reliable therapeutic agents against staphylococcal infections, but it is unable to clear biofilms even at high concentration (128 mg/l) (Climo et al. [1999]; Darouiche et al. [1994]; Tenover et al. [2001]). […] YycGF also plays an important role in the synthesis of peptidoglycan in B. subtilis and S. aureus (Bisicchia et al. [2007]; Dubrac and Msadek [2004]). In a preliminary study, we assessed the effects of the combined application of the derivatives with vancomycin and cefazolin against S. epidermidis ATCC 35984 according to the method of Odds ([2003]) (Cottagnoud et al. [2003]). […] No antagonism was observed between the derivatives and vancomycin or cefazolin (Table S1).
17 Table S1. The derivatives combined with vancomycin or cefazolin against S. epidermidis
Derivatives Antibiotics MIC (mg/L) FICIa Synergyb
Derivative Antibiotic In combination
alone alone (Derivative/Antibiotic)
19 a The FICI was calculated as FIC indexes= (MICderivative A in combination/MICderivative A
20 alone)+(MICantibiotic B in combination/MIC antibiotic B alone).
21 b The interaction between the two antibacterials is noted as follows: FIC index≤0.5,
22 Synergy (+); 0.5<FIC index≤4 (-), No interaction; FIC≥4.0, Antagonism.

[2] = test system: S. epidermidis ATCC 35984; test: Kinetics of killing planktonic S. epidermidis; format: cell-based; settings: for effect on growth in initial treatment phase: 1/4MIC (0.38 μM) and 1/2MIC (0.75 μM), 2 to 6 h
Method: An overnight culture of S. epidermidis ATCC 35984 was inoculated into 20 ml of fresh MH broth at a 1:200 dilution (10^6 CFU/ml). […] Every 2 h, 100 μl of the culture was diluted and spread on agar plates. Viable bacteria (CFU) were counted and the rate and extent of killing were determined by plotting CFU/ml against time (D’Arezzo et al. [2012]; Lee et al. [2008]). This experiment was independently repeated three times.

[3] = test system: 24-h biofilms of S. epidermidis ATCC 35984; test: Rabbit subcutaneous S. epidermidis biofilm infection model; format: in vivo, New Zealand White rabbits; settings: 6.3 μM (4 × MIC), 1 ml local injection at 0, 24, 48 h; 72 h exposure
Method: To test the effectiveness in vivo of H2-74 and H2-81, 24-h biofilms of S. epidermidis grown on polyethylene disks were imbedded subcutaneously into the New Zealand White rabbits and treated with the derivatives for 72 h in a modification of the method used previously (He et al. [2011]). Disks were cut from polyethylene 96-well plates (8 mm diameter, 1 mm thickness), sterilized with 75 % ethanol and placed in a Petri dish (100 mm diameter). An overnight culture of S. epidermidis ATCC 35984 (20 ml) was inoculated into the dish and incubated at 37 °C for 24 h. The disks covered with biofilms were then implanted subcutaneously in female New Zealand White rabbits (2.0–2.5 kg) that had been anesthetized with pentobarbital sodium (5 mg/kg i.v.). Four incisions (10 mm) were made on the back of the rabbit along the spine bilaterally after removal of fur, and the sub cutis was carefully dissected to form a 2-cm × 3-cm cavity. Two biofilm-covered polyethylene disks were implanted into each cavity, and to minimize the effect of between-animal variation, four different treatments were given locally to each rabbit.
Vancomycin (128 mg/l) and 0.1 % DMSO were administered as the controls. Twenty-four hours after the last treatment, the rabbits were euthanized and the implants were taken out with sterile forceps. Biofilms were scraped from the disks, and the viable bacteria were determined by CFU counting, as previously described (He et al. [2011]). All animals were housed and used in compliance with the guidelines of the Institute of Animal Care and Use Committee, and the protocol was approved by the committee.

[4] = cefazolin combined with the labelled derivative
[5] = derivative combined with cefazolin
[6] = derivative combined with vancomycin
[7] = vancomycin combined with the labelled derivative

Compound	MIC [1] [µg/mL]	MIC In combination: antibiotic [1, 4] [µg/mL]	FICI ([1]; derivative + cefazolin)	FICI ([1]; derivative + vancomycin)	MIC In combination: derivative [1, 5] [µg/mL]	MIC In combination: derivative [1, 6] [µg/mL]	MIC Derivative alone [1] [µg/mL]	MIC In combination: antibiotic [1, 7] [µg/mL]	effect on growth in initial treatment phase [2]	viable cells ([2]; 2 × MIC (3.1 μM), 12 h)	viable cells ([2]; 4 × MIC (6.3 μM), 10 h)	viable bacteria recovered from implanted disks [3] [log10 CFU/cm^2]	CFU remaining ([2]; 4 × MIC, 10 h, as restated in discussion)	interaction with vancomycin or cefazolin (in words) ([1]; S. epidermidis ATCC 35984, preliminary study)
O=C(O)c1cccc(-c2ccc(C=C3SC(=Nc4ccc(Cl)cc4)N(c4ccc(Cl)cc4)C3=O)o2)c1 [H2-38, 3-{5-{{3-(4-chlorophenyl)-2-[(4-chlorophenyl)imino]-4-oxothiazolidin-5-ylidene}methyl}furan-2-yl}benzoic acid]	0.8	0.5	0.56	0.63	0.4	0.4	0.8	0.5						
O=C(O)c1ccc(-c2ccc(C=C3SC(=Nc4ccc(Cl)cc4)N(c4ccc(Cl)cc4)C3=O)o2)cc1 [H2-39, 4-{5-{{3-(4-chlorophenyl)-2-[(4-chlorophenyl)imino]-4-oxothiazolidin-5-ylidene}methyl}furan-2-yl}benzoic acid]	0.8	0.25	0.53	1.13	0.4	0.8	0.8	0.5						
O=C(O)c1ccc(-c2ccc(/C=C3\S/C(=N\c4ccccc4)N(c4ccc(Cl)cc4)C3=O)o2)cc1 [H2-57, 4-{5-{{3-(4-chlorophenyl)-2-[(4-phenyl)imino]-4-oxothiazolidin-5-ylidene}methyl}furan-2-yl}benzoic acid]	1.7	0.25	0.53	1.13	0.85			0.5						
O=C(O)c1ccc(-c2ccc(C=C3SC(=Nc4ccc(F)cc4)N(c4ccc(F)cc4)C3=O)s2)cc1 [H2-60, 4-{5-{{3-(4-fluorophenyl)-2-[(4-fluorophenyl)imino]-4-oxothiazolidin-5-ylidene}methyl}thiophene-2-yl}benzoic acid]	1.7	0.25	0.53	0.56	0.85	0.85		0.25						
O=C(O)COc1ccc(C=C2SC(=Nc3ccc(Cl)cc3)N(c3ccc(Cl)cc3)C2=O)cc1 [H2-74, 2-{4-{[3-(4-chlorophenyl)-2-[(4-chlorophenyl)imino]-4-oxothiazolidin-5-ylidene}methyl}phenoxy}acetic acid]	0.8	1	0.63	0.38	0.4	0.2	0.8	0.5	inhibited the growth of S. epidermidis	3.2 × 10^3 CFU/ml	more than 3.1 × 10^2 CFU/ml	2.91 ± 0.42		
O=C(O)c1ccc(-c2ccc(/C=C3\S/C(=N\c4ccccc4)N(c4ccc(F)cc4)C3=O)s2)cc1 [H2-81, 4-{5-{{3-(4-fluorophenyl)-2-[(4-phenyl)imino]-4-oxothiazolidin-5-ylidene}methyl}thiophene-2-yl}benzoic acid]	0.7	1	0.38	0.5	0.18	0.18	0.7	1	inhibited the growth of S. epidermidis	less than 3 × 10^2 CFU/ml	< 10 CFU/ml	2.18	~ 10 CFU	synergistic effect

From PMC4057637, “Efficacy of novel antibacterial compounds targeting histidine kinase YycG protein” (Applied Microbiology and Biotechnology, 2014)
